Key:
[1] = molecular target: T1, B1 bradykinin receptor (Homo sapiens, UniProt P46663); assay: Binding affinity to human Bradykinin receptor B1 over-expressed in transgenic rats was determined by ex vivo receptor occupancy assay
T1 sequence (P46663 whole entry): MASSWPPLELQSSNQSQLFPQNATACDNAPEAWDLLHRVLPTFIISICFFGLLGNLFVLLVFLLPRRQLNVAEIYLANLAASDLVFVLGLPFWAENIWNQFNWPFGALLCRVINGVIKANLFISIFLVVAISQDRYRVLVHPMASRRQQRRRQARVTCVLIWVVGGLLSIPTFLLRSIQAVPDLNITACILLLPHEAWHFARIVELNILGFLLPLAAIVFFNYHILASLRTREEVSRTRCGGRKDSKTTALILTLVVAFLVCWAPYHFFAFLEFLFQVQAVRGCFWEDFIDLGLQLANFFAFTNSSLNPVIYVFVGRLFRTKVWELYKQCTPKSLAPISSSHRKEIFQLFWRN

[2] = molecular target: T2, B2 bradykinin receptor (Homo sapiens, UniProt P30411); assay: Binding affinity to human Bradykinin receptor B2 over-expressed in transgenic rats was determined by ex vivo receptor occupancy assay
T2 sequence (P30411 whole entry): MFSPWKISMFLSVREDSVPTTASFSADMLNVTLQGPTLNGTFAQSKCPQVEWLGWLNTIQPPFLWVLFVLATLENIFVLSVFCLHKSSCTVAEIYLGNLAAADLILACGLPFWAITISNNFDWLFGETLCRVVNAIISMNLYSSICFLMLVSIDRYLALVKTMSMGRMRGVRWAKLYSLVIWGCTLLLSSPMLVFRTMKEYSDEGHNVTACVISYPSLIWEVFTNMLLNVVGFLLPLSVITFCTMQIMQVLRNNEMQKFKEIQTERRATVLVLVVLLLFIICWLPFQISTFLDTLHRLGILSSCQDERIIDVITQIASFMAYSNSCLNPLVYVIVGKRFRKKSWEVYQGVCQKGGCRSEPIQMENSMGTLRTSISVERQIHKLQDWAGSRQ

[3] = species: Homo sapiens; assay: Binding affinity to human plasma protein; type: cell-free
[4] = Partition coefficient (logP); type: physicochemical; conditions: octanol/water
[5] = molecular target: T1, B1 bradykinin receptor; assay: Antagonist activity against human Bradykinin receptor B1 was determined in a fluorescence imaging plate reader assay; type: functional
[6] = molecular target: T1, B1 bradykinin receptor; assay: Binding affinity of the [35S]- radiolabeled compound to human Bradykinin receptor B1 over-expressed in transgenic rats was determined by ex vivo receptor occupancy assay
[7] = molecular target: T2, B2 bradykinin receptor; assay: Binding affinity of the [35S]- radiolabeled compound to human Bradykinin receptor B2 over-expressed in transgenic rats was determined by ex vivo receptor occupancy assay
[8] = molecular target: T1, B1 bradykinin receptor; assay: Equilibrium dissociation constant of the [35S]- radiolabeled compound against human Bradykinin receptor B1 expressed in CHO membranes was determined; type: cell membranes
[9] = species: Homo sapiens; assay: Binding affinity of the [35S]- radiolabeled compound to human plasma protein; type: cell-free
[10] = molecular target: T3, B1 bradykinin receptor (Canis lupus familiaris, UniProt Q9BDQ5); assay: Binding affinity of the [35S]- radiolabeled compound to dog Bradykinin receptor B1
T3 sequence (Q9BDQ5 whole entry): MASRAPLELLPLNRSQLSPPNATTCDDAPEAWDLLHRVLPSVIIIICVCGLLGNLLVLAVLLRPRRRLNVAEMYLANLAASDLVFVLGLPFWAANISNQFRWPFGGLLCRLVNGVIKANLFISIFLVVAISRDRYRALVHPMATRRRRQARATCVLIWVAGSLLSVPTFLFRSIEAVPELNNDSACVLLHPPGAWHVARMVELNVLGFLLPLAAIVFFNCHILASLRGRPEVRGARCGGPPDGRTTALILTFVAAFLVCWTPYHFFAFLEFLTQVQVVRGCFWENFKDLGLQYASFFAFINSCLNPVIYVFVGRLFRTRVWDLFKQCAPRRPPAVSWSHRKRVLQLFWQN

[11] = molecular target: T4, B1 bradykinin receptor (Oryctolagus cuniculus, UniProt P48748); assay: Binding affinity of the [35S]- radiolabeled compound to rabbit Bradykinin receptor B1
T4 sequence (P48748 whole entry): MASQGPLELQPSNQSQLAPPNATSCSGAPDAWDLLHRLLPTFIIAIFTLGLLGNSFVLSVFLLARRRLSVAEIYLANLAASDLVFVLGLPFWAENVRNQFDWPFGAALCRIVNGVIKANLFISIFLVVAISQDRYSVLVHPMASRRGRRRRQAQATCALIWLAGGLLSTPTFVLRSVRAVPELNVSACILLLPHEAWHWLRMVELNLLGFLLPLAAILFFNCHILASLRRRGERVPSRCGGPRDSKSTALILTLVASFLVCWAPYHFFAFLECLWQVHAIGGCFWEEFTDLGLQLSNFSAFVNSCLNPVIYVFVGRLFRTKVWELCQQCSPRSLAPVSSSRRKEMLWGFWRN

[12] = molecular target: T5, B1 bradykinin receptor (Homo sapiens) (UniProt P46663); assay: Maximum specific binding of the [35S]- radiolabeled compound to human Bradykinin receptor B1 expressed in CHO membranes was determined; type: cell membranes
T5 sequence (whole entry): T1 sequence (P46663 whole entry)

[13] = Half-life of the [35S]- radiolabeled compound; type: ADME
[14] = molecular target: T6, B1 bradykinin receptor (Rattus norvegicus, UniProt P97583); assay: Binding affinity of the [35S]- radiolabeled compound to rat Bradykinin receptor B1
T6 sequence (P97583 whole entry): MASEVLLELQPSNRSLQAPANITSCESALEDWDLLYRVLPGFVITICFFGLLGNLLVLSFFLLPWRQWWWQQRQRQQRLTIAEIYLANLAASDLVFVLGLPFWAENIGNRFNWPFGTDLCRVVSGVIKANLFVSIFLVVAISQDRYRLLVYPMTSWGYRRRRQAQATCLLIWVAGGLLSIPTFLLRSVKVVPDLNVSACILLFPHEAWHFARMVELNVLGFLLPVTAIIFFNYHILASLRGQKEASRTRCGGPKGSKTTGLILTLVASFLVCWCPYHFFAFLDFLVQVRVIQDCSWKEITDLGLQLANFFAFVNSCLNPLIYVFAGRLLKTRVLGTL

[15] = molecular target: T1, B1 bradykinin receptor; assay: Binding affinity (radioligand) to human Bradykinin receptor B1 over-expressed in transgenic rats was determined by ex vivo receptor occupancy assay; value ranges from 0.1-0.2 nM

In the case of `O=C(C[C@@H]1C(=O)Nc2ccccc2N1S(=O)(=O)c1ccc(Cl)c(Cl)c1)NCCc1ccc(-n2cnnc2)cc1`, the Ki [1] is reported as 3.73 nM, the Ki [2] is reported as over 10000 nM and the PPB [3] is reported as 82.5%. For the same molecule, the logP [4] was 2.35.

Molecule `CN1CCN=C1c1ccc(CCNC(=O)C[C@@H]2C(=O)Nc3ccc(Cl)cc3N2S(=O)(=O)c2ccc3ccccc3c2)cc1` has a Ki [1] of 0.02 nM, a Ki [2] of over 10000 nM and a PPB [3] of 91.7%. It also gave a logP [4] of 0.53.

Molecule `O=C(C[C@@H]1C(=O)Nc2ccc(Cl)cc2N1S(=O)(=O)c1ccc2ccccc2c1)NCCc1ccc(-c2ncc[nH]2)cc1` has a Ki [1] of 0.07 nM, a Ki [2] of over 10000 nM and a logP [4] of 3.41.

In the case of `O=C(C[C@@H]1C(=O)Nc2ccccc2N1S(=O)(=O)c1ccc(Cl)c(Cl)c1)NCCc1ccc(-n2ccnc2)cc1`, the Ki [1] is reported as 1.09 nM, the Ki [2] is reported as over 10000 nM and the logP [4] is reported as 3.35.

With `O=C(C[C@@H]1C(=O)Nc2ccccc2N1S(=O)(=O)c1ccc2ccccc2c1)NCCc1ccc(-c2ncc[nH]2)cc1` the Ki [1] was 0.07 nM, the Ki [2] was over 10000 nM and the PPB [3] was 98.5%. The logP [4] was 3.32.

With `O=C(C[C@@H]1C(=O)Nc2ccc(Cl)cc2N1S(=O)(=O)c1ccc2ccccc2c1)NCCc1ccc(C2=NCCN2)cc1` the Ki [1] was 0.01 nM, the Ki [2] was over 10000 nM and the PPB [3] was 93.6%. For the same molecule, the logP [4] was 1.

Work on `O=C(C[C@@H]1C(=O)Nc2ccccc2N1S(=O)(=O)c1ccc2ccccc2c1)NCCc1ccc(C2=NCCN2)cc1` yielded an IC50 [5] of 0.04 nM, a Ki [6] of 0.02 nM and a Ki [7] of over 10000 nM. For the same molecule, the Kd [8] was 0.015 nM, the PPB [9] was 79.4% and the Ki [10] was 0.5 nM. It also gave a Ki [11] of 0.05 nM, a Bmax (fM mg-1 protein) [12] of 480 and a logP [4] of 0.25. It also gave a half-life [13] of about 3.33 h and a Ki [14] of 34 nM.

Work on `[3H][C@@]1(C(=O)NCC(=O)N[C@@H](Cc2ccccc2)C(=O)N[C@@H](CO)C(=O)N2CCC[C@H]2C(=O)N[C@@H](CC(C)C)C(=O)O)CCCN1C(=O)[C@]1([3H])CCCN1C(=O)[C@H](CCCN=C(N)N)NC(=O)[C@@H](N)CCCCN` yielded a Ki [15] of under 0.2 nM.

Molecule `O=C(C[C@@H]1C(=O)Nc2ccccc2N1S(=O)(=O)c1ccc(Cl)c(Cl)c1)NCCc1ccc(C2=NCCN2)cc1` has a Ki [1] of 0.03 nM, a Ki [2] of over 10000 nM and a PPB [3] of 36%. The logP [4] was 0.48.

— ChEMBL document CHEMBL1138721, “Development of an efficient and selective radioligand for bradykinin B1 receptor occupancy studies” (Bioorg Med Chem Lett, 2004)
